Test results as given in US11053226B2, “KRAS G12C inhibitors and methods of using the same” (Amgen Inc., priority 2018, dated 2021).

Each molecule was assayed against GDP-bound KRAS protein (aa 1-169), containing both G12C and C118A amino acid substitutions (Homo sapiens (Human), UniProt P01116, C118A/G12C) (assay: Coupled Nucleotide Exchange Assay). Settings: read-out: Coupled Exchange IC50 (2 h); 2 h compound pre-incubation.
Chain of GDP-bound KRAS protein (aa 1-169), containing both G12C and C118A amino acid substitutions (P01116 other isoform, or with tags, fused parts or gaps G12C/C118A): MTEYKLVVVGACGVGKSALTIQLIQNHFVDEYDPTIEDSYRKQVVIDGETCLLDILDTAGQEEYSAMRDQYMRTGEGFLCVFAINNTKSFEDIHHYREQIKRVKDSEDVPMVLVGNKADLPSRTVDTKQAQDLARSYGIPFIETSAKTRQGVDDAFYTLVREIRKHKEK
Format: biochemical
Experimental: For compounds in Table 9, the following assay conditions were employed:
Coupled Nucleotide Exchange Assay:
The assay plates were then read on a PerkinElmer EnVision Multilabel Reader, using AlphaScreen® technology, and data were analyzed using a 4-parameter logistic model to calculate IC50 values.
`C=CC(=O)N1CC(NC(=O)Cn2c3ccc(Br)cc3c3ccc(Cl)nc32)C1` [Example 218] was tested, and the IC50 was > 250 µM. In the case of `C=CC(=O)N1CC(NC(=O)Cn2cc([N+](=O)[O-])c3cc(Cl)ccc32)C1` [Example 240], the IC50 is reported as 13.1 µM. With `C=CC(=O)N1CC(NC(=O)Cn2c3c(c4cc(Br)ccc42)CCN(C(C)=O)C3)C1` [Example 252] the IC50 was 19.4 µM. For `C=CC(=O)N1CC(NC(=O)Cn2cc(C(=O)C(=O)O)c3ccccc32)C1` [Example 201], the IC50 was > 250 µM. Work on `C=CC(=O)N1CC(N(C)C(=O)Cn2c3ccccc3c3cc(Br)ccc32)C1` [Example 261] yielded an IC50 of 15.4 µM. Molecule `C=CC(=O)N1CC(NC(=O)Cn2c(C(=O)NCc3ccccc3)c(I)c3cc(Br)ccc32)C1` [Example 192] has an IC50 of 107 µM. `C=CC(=O)N1CC(NC(=O)Cn2ccc3cc([N+](=O)[O-])ccc32)C1` [Example 232] was tested, and the IC50 was > 250 µM. For `C=CC(=O)N1CC(NC(=O)Cn2c3c(c4cc(Br)ccc42)CNCC3)C1` [Example 249], the IC50 was 54.6 µM. `C=CC(=O)N1CC(NC(=O)Cn2ccc3c(F)c(Br)ccc32)C1` [Example 255] was tested, and the IC50 was > 250 µM. With `C=CC(=O)N1CC(NC(=O)Cn2ccc3c(Cl)cccc32)C1` [Example 199] the IC50 was > 250 µM. With `C=CC(=O)N1CC(NC(=O)Cn2cc(C#N)c3cc(Br)ccc32)C1` [Example 211] the IC50 was 22.9 µM. Work on `C=CC(=O)N1CC(NC(=O)Cn2ccc3cc(Br)cc(F)c32)C1` [Example 267] yielded an IC50 of 15.5 µM. `C=CC(=O)N1CC(NC(=O)Cn2cc(C(=O)C(=O)OCC)c3ccccc32)C1` [Example 200] was tested, and the IC50 was > 250 µM. `C=CC(=O)N1CC(NC(=O)Cn2cc(-c3cccnc3)c3cc(Br)ccc32)C1` [Example 206] gave an IC50 of 14.1 µM. Molecule `C=CC(=O)N1CC(NC(=O)Cn2cc(Cc3ccccc3)c3cc(Br)ccc32)C1` [Example 231] has an IC50 of 10.3 µM. `C=CC(=O)N1CC(NC(=O)Cn2cc(-c3cocn3)c3ccc(-c4ccccc4Cl)cc32)C1` [Example 219] was tested, and the IC50 was > 250 µM. In the case of `C=CC(=O)N1CC(NC(=O)Cn2ccc3cc(C(F)(F)F)ccc32)C1` [Example 235], the IC50 is reported as > 250 µM. Work on `C=CC(=O)N1CC(NC(=O)Cn2c(C(=O)OC)cc3c(Cl)c(Cl)ccc32)C1` [Example 220] yielded an IC50 of 12.2 µM. In the case of `C=CC(=O)N1CC(NC(=O)Cn2cc(-c3ccc4ccccc4c3)c3cc(-c4ccc5ccccc5c4)cc(C)c32)C1` [Example 263], the IC50 is reported as > 250 µM. In the case of `C=CC(=O)N1CC(NC(=O)Cn2ccc3cc(C4CC4)ccc32)C1` [Example 217], the IC50 is reported as > 250 µM. With `C=CC(=O)N1CC(NC(=O)Cn2c3ccccc3c3ccccc32)C1` [Example 195] the IC50 was > 250 µM. In the case of `C=CC(=O)N1CC(NC(=O)Cn2c3c(c4cc(Br)ccc42)CCCC3=O)C1` [Example 262], the IC50 is reported as > 250 µM. Work on `C=CC(=O)N1CC(NC(=O)Cn2c(-c3ncccn3)cc3cc(Cl)ccc32)C1` [Example 196] yielded an IC50 of 45.6 µM. With `C=CC(=O)N1CC(NC(=O)Cn2cc(-c3c(F)ccc4cn[nH]c34)c3cc(-c4c(F)ccc5cn[nH]c45)ccc32)C1` [Example 208] the IC50 was 20.5 µM. Molecule `C=CC(=O)N1CC(NC(=O)Cn2cc(-c3cc[nH]n3)c3ccc(-c4ccccc4Cl)cc32)C1` [Example 229] has an IC50 of 18.9 µM. For `C=CC(=O)N1CC(NC(=O)Cn2ccc3cc(Cl)c(Cl)cc32)C1` [Example 258], the IC50 was 104 µM.

Same assay, conditions: read-out: Coupled Exchange IC50 (20 h); 20 h compound pre-incubation
In the case of `C=CC(=O)N1CC(NC(=O)Cn2c3ccc(Br)cc3c3ccc(Cl)nc32)C1` [Example 218], the IC50 is reported as > 250 µM. `C=CC(=O)N1CC(NC(=O)Cn2cc([N+](=O)[O-])c3cc(Cl)ccc32)C1` [Example 240] showed an IC50 of 1.33 µM. `C=CC(=O)N1CC(NC(=O)Cn2c3c(c4cc(Br)ccc42)CCN(C(C)=O)C3)C1` [Example 252] showed an IC50 of 2.49 µM. For `C=CC(=O)N1CC(NC(=O)Cn2cc(C(=O)C(=O)O)c3ccccc32)C1` [Example 201], the IC50 was > 250 µM. Work on `C=CC(=O)N1CC(N(C)C(=O)Cn2c3ccccc3c3cc(Br)ccc32)C1` [Example 261] yielded an IC50 of 2.17 µM. For `C=CC(=O)N1CC(NC(=O)Cn2c(C(=O)NCc3ccccc3)c(I)c3cc(Br)ccc32)C1` [Example 192], the IC50 was 61.7 µM. Molecule `C=CC(=O)N1CC(NC(=O)Cn2ccc3cc([N+](=O)[O-])ccc32)C1` [Example 232] has an IC50 of 94.1 µM. `C=CC(=O)N1CC(NC(=O)Cn2c3c(c4cc(Br)ccc42)CNCC3)C1` [Example 249] was tested, and the IC50 was 21.7 µM. For `C=CC(=O)N1CC(NC(=O)Cn2ccc3c(F)c(Br)ccc32)C1` [Example 255], the IC50 was 4.89 µM. Work on `C=CC(=O)N1CC(NC(=O)Cn2ccc3c(Cl)cccc32)C1` [Example 199] yielded an IC50 of 21.6 µM. With `C=CC(=O)N1CC(NC(=O)Cn2cc(C#N)c3cc(Br)ccc32)C1` [Example 211] the IC50 was 5.2 µM. `C=CC(=O)N1CC(NC(=O)Cn2ccc3cc(Br)cc(F)c32)C1` [Example 267] showed an IC50 of 2.25 µM. With `C=CC(=O)N1CC(NC(=O)Cn2cc(C(=O)C(=O)OCC)c3ccccc32)C1` [Example 200] the IC50 was > 250 µM. For `C=CC(=O)N1CC(NC(=O)Cn2cc(-c3cccnc3)c3cc(Br)ccc32)C1` [Example 206], the IC50 was 2.84 µM. `C=CC(=O)N1CC(NC(=O)Cn2cc(Cc3ccccc3)c3cc(Br)ccc32)C1` [Example 231] showed an IC50 of 2.05 µM. `C=CC(=O)N1CC(NC(=O)Cn2cc(-c3cocn3)c3ccc(-c4ccccc4Cl)cc32)C1` [Example 219] was tested, and the IC50 was 2.87 µM. `C=CC(=O)N1CC(NC(=O)Cn2ccc3cc(C(F)(F)F)ccc32)C1` [Example 235] showed an IC50 of 5.45 µM. For `C=CC(=O)N1CC(NC(=O)Cn2c(C(=O)OC)cc3c(Cl)c(Cl)ccc32)C1` [Example 220], the IC50 was 1.89 µM. In the case of `C=CC(=O)N1CC(NC(=O)Cn2cc(-c3ccc4ccccc4c3)c3cc(-c4ccc5ccccc5c4)cc(C)c32)C1` [Example 263], the IC50 is reported as 16.3 µM. With `C=CC(=O)N1CC(NC(=O)Cn2ccc3cc(C4CC4)ccc32)C1` [Example 217] the IC50 was > 125 µM. For `C=CC(=O)N1CC(NC(=O)Cn2c3ccccc3c3ccccc32)C1` [Example 195], the IC50 was 33.5 µM. With `C=CC(=O)N1CC(NC(=O)Cn2c3c(c4cc(Br)ccc42)CCCC3=O)C1` [Example 262] the IC50 was 3.31 µM. `C=CC(=O)N1CC(NC(=O)Cn2c(-c3ncccn3)cc3cc(Cl)ccc32)C1` [Example 196] showed an IC50 of 6.09 µM. `C=CC(=O)N1CC(NC(=O)Cn2cc(-c3c(F)ccc4cn[nH]c34)c3cc(-c4c(F)ccc5cn[nH]c45)ccc32)C1` [Example 208] showed an IC50 of 13 µM. For `C=CC(=O)N1CC(NC(=O)Cn2cc(-c3cc[nH]n3)c3ccc(-c4ccccc4Cl)cc32)C1` [Example 229], the IC50 was 5.4 µM. `C=CC(=O)N1CC(NC(=O)Cn2ccc3cc(Cl)c(Cl)cc32)C1` [Example 258] showed an IC50 of 5.22 µM.

Same assay, conditions: second Coupled Exchange column; read-out: Coupled Exchange IC50
`C=CC(=O)N1CC(NC(=O)Cn2c(C)c(-c3ncccc3Cl)c3cc(Cl)ccc32)C1` [Example 306] showed an IC50 of 9.53 µM. `C=CC(=O)N1CC(NC(=O)Cn2c3ccccc3c3ccc(Cl)nc32)C1` [Example 280] was tested, and the IC50 was > 250 µM. `C=CC(=O)N1CC(NC(=O)Cn2c(C)c(-c3nccnc3Cl)c3cc(Cl)ccc32)C1` [Example 281] gave an IC50 of 13.6 µM. Work on `C=CC(=O)N1CC(NC(=O)Cn2cc(CC(=O)N3CCCC4(CCCN(C)C4)C3)c3cc(Br)ccc32)C1` (stereo not drawn) [Example 322] yielded an IC50 of 2.07 µM. In the case of `C=CC(=O)N1CC(NC(=O)Cn2ccc3cc(CC)ccc32)C1` [Example 277], the IC50 is reported as > 250 µM. In the case of `C=C(CCO)C(=O)N1CC(NC(=O)Cn2c(C)c(C(=O)N3CCc4c(cccc4OC)C3)c3cc(Br)ccc32)C1` [Example 313], the IC50 is reported as > 250 µM. Molecule `C=CC(=O)N1CC(NC(=O)Cn2ccc3c(Cl)c(Cl)ccc32)C1` [Example 317] has an IC50 of 15.5 µM.

Same assay, conditions: third Coupled Exchange column; compound pre-incubation probably 20 hours (rest of head not shown; b435 lists 5 min, 2 hours or 20 hours); read-out: Coupled Exchange IC50
In the case of `C=CC(=O)N1CC(NC(=O)Cn2c(C)c(-c3ncccc3Cl)c3cc(Cl)ccc32)C1` [Example 306], the IC50 is reported as 1.64 µM. `C=CC(=O)N1CC(NC(=O)Cn2c3ccccc3c3ccc(Cl)nc32)C1` [Example 280] was tested, and the IC50 was > 62.5 µM. Molecule `C=CC(=O)N1CC(NC(=O)Cn2c(C)c(-c3nccnc3Cl)c3cc(Cl)ccc32)C1` [Example 281] has an IC50 of 2.32 µM. For `C=CC(=O)N1CC(NC(=O)Cn2ccc3cc(CC)ccc32)C1` [Example 277], the IC50 was > 250 µM.
